Consider five compounds from patent US5153124A, “Hydroxyl-ML-236B derivatives, their preparation and use” (Sankyo Company Limited, priority 1985, dated 1992).

The subject of this test is cholesterol biosynthesis. The test is described as follows: Inhibitory activity against cholesterol biosynthesis (method of J. Biol. Chem. 234, 2835 (1959)). The format is biochemical. Conditions: method of Journal of Biological Chemistry, 234, 2835 (1959). An excerpt:
The inhibitory activities of certain of the compounds of the invention, in terms of the concentration in μg/ml required to inhibit cholesterol biosynthesis by 50% [measured by the method described in the Journal of Biological Chemistry, 234, 2835 (1959)], are as follows: […]

With `CC(O)[C@H](C)C(=O)O[C@H]1C[C@H](O)C=C2C=C[C@H](C)[C@H](CC[C@@H](O)C[C@@H](O)CC(=O)O)[C@H]21` (single isomer, unassigned) [Sodium 3",6'β-dihydroxy-ML-236B carboxylate, Substance A], the “concentration required to inhibit cholesterol biosynthesis by 50%” value is 0.0018 µg/mL.

Take `CC(O)[C@H](C)C(=O)O[C@H]1C[C@H](O)C=C2C=C[C@H](C)[C@H](CC[C@@H](O)C[C@@H](O)CC(=O)O)[C@H]21` (single isomer, unassigned) [Sodium 3",6'β-dihydroxy-ML-236B carboxylate, Substance B]: the “concentration required to inhibit cholesterol biosynthesis by 50%” value is 0.024 µg/mL.

With `CC(O)[C@H](C)C(=O)O[C@H]1CCC=C2C=C[C@H](C)[C@H](CC[C@@H]3C[C@@H](O)CC(=O)O3)[C@H]21` (some centres unmarked) [3"-hydroxy-ML-236B lactone, 3"-Hydroxy-ML-236B lactone], the “concentration required to inhibit cholesterol biosynthesis by 50%” value turned out to be 0.039 µg/mL.

For the compound `CC[C@H](C)C(=O)O[C@H]1CCC=C2C=C[C@H](C)[C@H](CC[C@@H]3C[C@@H](O)CC(=O)O3)[C@H]21` [ML-236B lactone, reference compound], the “concentration required to inhibit cholesterol biosynthesis by 50%” value is 0.010 µg/mL.

Regarding `CC(O)[C@H](C)C(=O)O[C@H]1CCC=C2C=C[C@H](C)[C@H](CC[C@@H](O)C[C@@H](O)CC(=O)O)[C@H]21` (some centres unmarked) [Sodium 3"-hydroxy-ML-236B carboxylate], the “concentration required to inhibit cholesterol biosynthesis by 50%” value was found to be 0.0032 µg/mL.
